Assay results from US9073940B2, “Tricyclic pyrazol amine derivatives” (MERCK SERONO SA, priority 2009, dated 2015).

system: 4 PI3K isoforms (Human recombinant GST-PI3K); test: PI3K scintillation proximity assay, best IC50 obtained with the four isoforms (alpha, beta, delta, gamma); assay type: biochemical; settings: best IC50 obtained with the four isoforms of PI3K; read-out: Best potency measured on the 4 PI3K isoforms

Going from `O=C(c1nn(C2CN(CCN3CCOCC3)C2)c2c1CS(=O)(=O)c1ccccc1-2)N1CCOCC1` [Example 407, 3-(Morpholin-4-ylcarbonyl)-1-[1-(2-morpholin-4-ylethyl)azetidin-3-yl]-1,4-dihydrothiochromeno[4,3-c]pyrazole 5,5-dioxide] to `O=C(c1nn([C@H]2CCN(CCN3CCC(F)CC3)C2)c2c1CS(=O)(=O)c1ccccc1-2)N1CCOCC1` (single isomer, unassigned) [Example 410, 1-{1-[2-(4-fluoropiperidin-1-yl)ethyl]pyrrolidin-3-yl}-3-(morpholin-4-ylcarbonyl)-1,4-dihydrothiochromeno[4,3-c]pyrazole 5,5-dioxide], the IC50 rises from 236 nM to 3690 nM (16-fold).

Compared with `O=C(c1nn(-c2ccccc2)c2c1CS(=O)(=O)c1ccncc1-2)N1CCOCC1` [Example 150, 3-(Morpholin-4-ylcarbonyl)-1-phenyl-1,4-dihydropyrazolo[3′,4′:4,5]thiopyrano[3,2-c]pyridine 5,5-dioxide], `CS(=O)(=O)Nc1ccc2c(c1)-c1c(c(C(=O)N3CCOCC3)nn1-c1ccccc1)CS2(=O)=O` [Example 118, N-[3-(Morpholin-4-ylcarbonyl)-5,5-dioxido-1-phenyl-1,4-dihydrothiochromeno[4,3-c]pyrazol-8-yl]methanesulfonamide] is 2.3-fold lower in IC50: 3050 nM for the first, 1310 nM for the second. The second is the more potent here.

First: O=C(c1nn(CC2CCOCC2)c2c1CS(=O)(=O)c1ccccc1-2)N1CCOCC1 [Example 52, 3-(morpholin-4-ylcarbonyl)-1-(tetrahydro-2H-pyran-4-ylmethyl)-1,4-dihydrothiochromeno[4,3-c]pyrazole 5,5-dioxide]
Second: O=C(c1nn(C2CCCN(CC3CCOCC3)C2)c2c1CS(=O)(=O)c1ccccc1-2)N1CCOCC1 (centres unmarked) [Example 305, 3-(morpholin-4-ylcarbonyl)-1-[1-(tetrahydro-2H-pyran-4-ylmethyl)piperidin-3-yl]-1,4-dihydrothiochromeno[4,3-c]pyrazole 5,5-dioxide]
The IC50 of the first is 72-fold higher: 789 nM for the first, 11 nM for the second. The second is the more potent here.

Compared with `O=C(c1nn(-c2ccccc2)c2c1CS(=O)(=O)c1ccccc1-2)N1CCOC(CO)C1` (centres unmarked) [Example 333, {4-[(5,5-Dioxido-1-phenyl-1,4-dihydrothiochromeno[4,3-c]pyrazol-3-yl)carbonyl]morpholin-2-yl}methanol], `CS(=O)(=O)c1cccc(-n2nc(C(=O)N3CCOCC3)c3c2-c2ccccc2S(=O)(=O)C3)c1` [Example 138, 1-[3-(Methylsulfonyl)phenyl]-3-(morpholin-4-ylcarbonyl)-1,4-dihydrothiochromeno[4,3-c]pyrazole 5,5-dioxide] is 2.6-fold lower in IC50: 6530 nM for the first, 2560 nM for the second.

Compared with `CN1CCCC1CCn1nc(C(=O)N2CCOCC2)c2c1-c1ccccc1S(=O)(=O)C2` (centres unmarked) [Example 71, 1-[2-(1-Methylpyrrolidin-2-yl)ethyl]-3-(morpholin-4-ylcarbonyl)-1,4-dihydrothiochromeno[4,3-c]pyrazole 5,5-dioxide], `O=C(c1nn([C@H]2CCCN(CCF)C2)c2c1CS(=O)(=O)c1ccccc1-2)N1CCOCC1` (single isomer, unassigned) [Example 372, 1-[1-(2-fluoroethyl)piperidin-3-yl]-3-(morpholin-4-ylcarbonyl)-1,4-dihydrothiochromeno[4,3-c]pyrazole 5,5-dioxide] is 6.2-fold lower in IC50: 1230 nM for the first, 200 nM for the second. The second is the more potent here.

Going from `O=C(c1nn(Cc2cc(Cl)cs2)c2c1CS(=O)(=O)c1ccccc1-2)N1CCOCC1` [Example 240, 1-[(4-Chloro-2-thienyl)methyl]-3-(morpholin-4-ylcarbonyl)-1,4-dihydrothiochromeno[4,3-c]pyrazole 5,5-dioxide] to `O=C(c1nn(-c2ccc(CN3CCCC3)cc2)c2c1CS(=O)(=O)c1ccccc1-2)N1CCOCC1` [Example 228, 3-(Morpholin-4-ylcarbonyl)-1-[4-(pyrrolidin-1-ylmethyl)phenyl]-1,4-dihydrothiochromeno[4,3-c]pyrazole 5,5-dioxide], the IC50 falls from 624 nM to 285 nM (2.2-fold).

Compared with `Cn1nc(C(=O)N2CCOCC2)c2c1-c1cccc(F)c1S(=O)(=O)C2` [Example 14, 6-fluoro-1-methyl-3-(morpholin-4-ylcarbonyl)-1,4-dihydrothiochromeno[4,3-c]pyrazole 5,5-dioxide], `O=C(c1nn(C2CCCN(CCN3CC(F)(F)C3)C2)c2c1CS(=O)(=O)c1c(F)cccc1-2)N1CCOCC1` (centres unmarked) [Example 414, 1-{1-[2-(3,3-Difluoroazetidin-1-yl)ethyl]piperidin-3-yl}-6-fluoro-3-(morpholin-4-ylcarbonyl)-1,4-dihydrothiochromeno[4,3-c]pyrazole 5,5-dioxide] is 18-fold lower in IC50: 687 nM for the first, 38 nM for the second.

Compared with `O=C(c1nn(C2CCCN(CCc3ccccc3)C2)c2c1CS(=O)(=O)c1ccccc1-2)N1CCOCC1` (centres unmarked) [Example 219, 3-(Morpholin-4-ylcarbonyl)-1-[1-(2-phenylethyl)piperidin-3-yl]-1,4-dihydrothiochromeno[4,3-c]pyrazole 5,5-dioxide], `O=C(c1nn([C@H]2CCCN(CCN3CCCC3)C2)c2c1CS(=O)(=O)c1ccccc1-2)N1CCOCC1` (stereo in doubt) [Example 450, 3-(morpholin-4-ylcarbonyl)-1-[1-(2-pyrrolidin-1-ylethyl)piperidin-3-yl]-1,4-dihydrothiochromeno[4,3-c]pyrazole 5,5-dioxide] is 100-fold lower in IC50: 711 nM for the first, 7 nM for the second. The second is the more potent here.

First: O=C(c1nn(C2CCN(CCC3CCOCC3)C2)c2c1CS(=O)(=O)c1ccccc1-2)N1CCOCC1 (centres unmarked) [Example 270, 3-(Morpholin-4-ylcarbonyl)-1-{1-[2-(tetrahydro-2H-pyran-4-yl)ethyl]pyrrolidin-3-yl}-1,4-dihydrothiochromeno[4,3-c]pyrazole 5,5-dioxide]
Second: O=C(c1nn([C@H]2CCCN(CCC3CCOCC3)C2)c2c1CS(=O)(=O)c1ncccc1-2)N1CCOCC1 (single isomer, unassigned) [Example 422, 3-(morpholin-4-ylcarbonyl)-1-{1-[2-(tetrahydro-2H-pyran-4-yl)ethyl]piperidin-3-yl}-1,4-dihydropyrazolo[3′,4′:4,5]thiopyrano[2,3-b]pyridine 5,5-dioxide]
The IC50 of the first is 18-fold higher: 280 nM for the first, 16 nM for the second. The second is the more potent here.

Going from `COc1ccc2c(c1)S(=O)(=O)Cc1c(C(=O)N3CCOCC3)nn([C@H]3CCCN(CC4CCOC4)C3)c1-2` (stereo in doubt) [Example 395, 7-methoxy-3-(morpholin-4-ylcarbonyl)-1-[1-(tetrahydrofuran-3-ylmethyl)piperidin-3-yl]-1,4-dihydrothiochromeno[4,3-c]pyrazole 5,5-dioxide] to `COc1ccc2c(c1)S(=O)(=O)Cc1c(C(=O)N3CCOCC3)nn([C@H]3CCCN(CCN4CC(F)(F)C4)C3)c1-2` (single isomer, unassigned) [Example 382, 1-{1-[2-(3,3-difluoroazetidin-1-yl)ethyl]piperidin-3-yl}-7-methoxy-3-(morpholin-4-ylcarbonyl)-1,4-dihydrothiochromeno[4,3-c]pyrazole 5,5-dioxide], the IC50 falls from 44 nM to 15 nM (2.9-fold).

First: O=C(c1nn(-c2cccc(OCCn3ccnc3)c2)c2c1CS(=O)(=O)c1ccccc1-2)N1CCOCC1 [Example 360, 1-{3-[2-(1H-Imidazol-1-yl)ethoxy]phenyl}-3-(morpholin-4-ylcarbonyl)-1,4-dihydrothiochromeno[4,3-c]pyrazole 5,5-dioxide]
Second: COC1CCN(Cc2cccc(-n3nc(C(=O)N4CCOCC4)c4c3-c3ccccc3S(=O)(=O)C4)c2)C1 (centres unmarked) [Example 266, 1-{3-[(3-Methoxypyrrolidin-1-yl)methyl]phenyl}-3-(morpholin-4-ylcarbonyl)-1,4-dihydrothiochromeno[4,3-c]pyrazole 5,5-dioxide]
The IC50 of the first is 2-fold lower: 179 nM for the first, 350 nM for the second. The first is the more potent here.

Compared with `COc1cccc2c1S(=O)(=O)Cc1c(C(=O)N3CCOCC3)nn([C@H]3CCCN(CCN4CCOCC4)C3)c1-2` (single isomer, unassigned) [Example 424, 6-methoxy-3-(morpholin-4-ylcarbonyl)-1-[1-(2-morpholin-4-ylethyl)piperidin-3-yl]-1,4-dihydrothiochromeno[4,3-c]pyrazole 5,5-dioxide], `O=C(c1nn(C2CCCN(CCN3CCOCC3)C2)c2c1CS(=O)(=O)c1c(Cl)cccc1-2)N1CCOCC1` (centres unmarked) [Example 309, 6-Chloro-3-(morpholin-4-ylcarbonyl)-1-[1-(2-morpholin-4-ylethyl)piperidin-3-yl]-1,4-dihydrothiochromeno[4,3-c]pyrazole 5,5-dioxide] is 2-fold higher in IC50: 59 nM for the first, 120 nM for the second.

Going from `O=C(c1nn(C2CCC(O)CC2)c2c1CS(=O)(=O)c1ccccc1-2)N1CCOCC1` (centres unmarked) [Example 98, 4-[3-(Morpholin-4-ylcarbonyl)-5,5-dioxidothiochromeno[4,3-c]pyrazol-1(4H)-yl]cyclohexanol] to `O=C(NC1CCCCC1)N1CCC(n2nc(C(=O)N3CCOCC3)c3c2-c2ccccc2S(=O)(=O)C3)C1` (centres unmarked) [Example 276], the IC50 rises from 512 nM to 875 nM (1.7-fold).

First: CS(=O)(=O)C1CCN(Cc2ccc(-n3nc(C(=O)N4CCOCC4)c4c3-c3ccccc3S(=O)(=O)C4)cc2)C1 (centres unmarked) [Example 229, 1-(4-{[3-(Methylsulfonyl)pyrrolidin-1-yl]methyl}phenyl)-3-(morpholin-4-ylcarbonyl)-1,4-dihydrothiochromeno[4,3-c]pyrazole 5,5-dioxide]
Second: COC1CN(Cc2ccc(-n3nc(C(=O)N4CCOCC4)c4c3-c3ccccc3S(=O)(=O)C4)cc2)C1 [Example 272, 1-{4-[(3-Methoxyazetidin-1-yl)methyl]phenyl}-3-(morpholin-4-ylcarbonyl)-1,4-dihydrothiochromeno[4,3-c]pyrazole 5,5-dioxide]
The IC50 of the first is 5.6-fold higher: 920 nM for the first, 165 nM for the second. The second is the more potent here.

Work on `O=C(c1nn(-c2ccc(N3CCOCC3)cc2)c2c1CS(=O)(=O)c1ccccc1-2)N1CCOCC1` [Example 155, 3-(Morpholin-4-ylcarbonyl)-1-(4-morpholin-4-ylphenyl)-1,4-dihydrothiochromeno[4,3-c]pyrazole 5,5-dioxide] yielded an IC50 of 3940 nM.

same assay, conditions: inhibition at 20 μM

First: O=C(c1nn(-c2cccc(-c3nn[nH]n3)c2)c2c1CS(=O)(=O)c1ccccc1-2)N1CCOCC1 [Example 325]
Second: CN(C)Cc1cccc2c1S(=O)(=O)Cc1c(C(=O)N3CCOCC3)nn(-c3ccccc3)c1-2 [Example 320]
The “Best potency measured on the 4 PI3K isoforms, % inh @20 μM” value of the first is lower: 19% inh @20 μM for the first, 32% inh @20 μM for the second.

In the case of `O=C(c1nn(-c2ccccc2)c2c1CS(=O)(=O)c1ccccc1-2)N1CCOc2ccccc21` [Example 335], the “Best potency measured on the 4 PI3K isoforms, % inh @20 μM” value is reported as 13% inh @20 μM.
